These results are taken from ChEMBL document CHEMBL1150540, “Aromatic P1 replacements for the highly potent HIV-1 protease inhibitor CRIXIVAN” (Bioorg Med Chem Lett, 1996).

Test [1] addresses Human immunodeficiency virus type 1 protease (Human immunodeficiency virus 1, UniProt Q72874). As to the kind of experiment: Inhibition of HIV-1 protease.
Test [2] has as its target Human immunodeficiency virus type 1 protease (Human immunodeficiency virus 1) (UniProt Q72874). As to the kind of experiment: In vitro inhibition of HIV-1 protease, activity expressed as CIC95 in whole cell assay.

The compound `O=C(N[C@H]1c2ccccc2C[C@H]1O)[C@H](Cc1ccccc1)C[C@H](O)Cc1ccccc1` came in with an IC50 in test [1] of 1200 nM.

In the case of `COc1ccccc1C[C@@H](O)C[C@@H](Cc1ccccc1)C(=O)N[C@H]1c2ccccc2C[C@H]1O`, half-maximal inhibition in test [1] (IC50) required 80 nM.

Regarding `CSc1ccccc1C[C@@H](O)C[C@@H](Cc1ccccc1)C(=O)N[C@H]1c2ccccc2C[C@H]1O`, in test [1], the IC50 came out at 95 nM.

With `CC(C)(C)NC(=O)c1ccccc1C[C@@H](O)C[C@@H](Cc1ccccc1)C(=O)N[C@H]1c2ccccc2C[C@H]1O`, the 95% effect level in test [2] (IC95) was put at 800 nM. 4.7 nM corresponded to half-maximal inhibition in test [1] (IC50).

In the case of `CC(C)(C)NC(=O)[C@@H]1CNCCN1C[C@@H](O)C[C@@H](Cc1ccccc1)C(=O)N[C@H]1c2ccccc2C[C@H]1O`, the IC95 in test [2] is 3000 nM. Further, the IC50 in test [1] is 38 nM.

As to `CC(C)(C)NC(=O)[C@@H]1CCCCN1C[C@@H](O)C[C@@H](Cc1ccccc1)C(=O)N[C@H]1c2ccccc2C[C@H]1O`, in test [1], the IC50 was determined as 80 nM.

Compound `COc1ccc(C[C@@H](O)C[C@@H](Cc2ccccc2)C(=O)N[C@H]2c3ccccc3C[C@H]2O)c(OC)c1` showed an IC50 in test [1] of 105 nM. The IC50 values of the last two compounds are within 1.5-fold of each other.

For `CC(C)(C)NS(=O)(=O)c1ccccc1C[C@@H](O)C[C@@H](Cc1ccccc1)C(=O)N[C@H]1c2ccccc2C[C@H]1O`, 6 nM corresponded to half-maximal inhibition in test [1] (IC50).

Regarding `Cc1ccc(C[C@@H](O)C[C@@H](Cc2ccccc2)C(=O)N[C@H]2c3ccccc3C[C@H]2O)c(C(=O)NC(C)(C)C)c1`, the IC95 in test [2] came to 400 nM. In test [1], the midpoint of inhibition, the IC50, lay at 1.7 nM.

In test [1], `NS(=O)(=O)c1ccccc1C[C@@H](O)C[C@@H](Cc1ccccc1)C(=O)N[C@H]1c2ccccc2C[C@H]1O` came in with an IC50 of 290 nM.

In the case of `CS(=O)(=O)c1ccccc1C[C@@H](O)C[C@@H](Cc1ccccc1)C(=O)N[C@H]1c2ccccc2C[C@H]1O`, the midpoint of inhibition in test [1], the IC50, lay at 314 nM.

`CC(C)COc1ccccc1C[C@@H](O)C[C@@H](Cc1ccccc1)C(=O)N[C@H]1c2ccccc2C[C@H]1O` returned an IC50 in test [1] of 97 nM.

For the compound `COCOc1ccccc1C[C@@H](O)C[C@@H](Cc1ccccc1)C(=O)N[C@H]1c2ccccc2C[C@H]1O`, 276 nM corresponded to half-maximal inhibition in test [1] (IC50). Against the preceding compound, the IC50 is about 2.8-fold higher.

`COc1cc(Oc2ccccc2)ccc1C[C@@H](O)C[C@@H](Cc1ccccc1)C(=O)N[C@H]1c2ccccc2C[C@H]1O` registered an IC50 in test [1] of 45 nM.

Compound `O=C(N[C@H]1c2ccccc2C[C@H]1O)[C@H](Cc1ccccc1)C[C@H](O)Cc1ccccc1O` displayed an IC50 in test [1] of 1600 nM. This IC50 is about 36-fold higher than that of the compound before.
